Results reported in patent US4529593A, “Use of gallium salts to treat disorders of calcium homeostasis” (Sloan-Kettering Institute for Cancer Research, priority 1984, dated 1985).

Experiments:
fetal rat bones = test: 45-Ca++ release (bone resorption) from explants of fetal rat bones stimulated by PTH or lymphokine (OAF); format: cell-based; details: for 45-Ca++ release after stimulation by PTH or lymphokine (dose dependence): 48 hrs preincubation; for 45-Ca++ release expt'l / 45-Ca++ release control (E/C): control 1.00 ± .06; for 45-Ca++ release, gallium alone: without added PTH or lymphokine, vs control bones
Experimental: The effects of gallium nitrate on bone resorption in vitro were studied using explants of fetal rat bones (Bockman, R. S. and Repo, M. A., J Exp Med 154:529, 1981). Pregnant rats were injected with 0.2-0.4 mCi of 45-CaC12 on the 18th day of gestation. After 2 days of bone mineralization in utero, the radii and ulnae of fetal rats were explanted and placed on stainless steel rafts in BGJ media. Calcium releases from bone was stimulated by the addition of bovine PTH (2.0 microM, final concentration)or a lymphokine (OAF) preparation (10% of final volume). Gallium nitrate was added to the culture media at final concentration of 1, 5 and 10 mcg/ml simultaneously with--and 18 or 48 hours prior to--the addition of the bone-resorbing factors. After 48 hours of exposure to lymphokine or PTH, calcium release was determined by counting the supernatant media in a liquid scintillation counter. Data were expressed as the ratio of calcium release in counts per minute (cpm) of the experimental bone (treated or untreated with gallium nitrate and a resorbing factor) to cpm release by a paired control bone (treated or untreated with gallium nitrate) [cpm experimental/cpm control=E/C] Forty-nine bones were used to establish control values; 4-22 bones were used to obtain each of the experimental points. […]

calcium metabolism = test: metabolic study of patients receiving gallium nitrate (calcium homeostasis); format: in vivo
From the text: (§1) As with most anticancer drugs, gallium can potentially cause serious toxicity. The most serious side-effect being kidney damage. […] Furthermore, the anti bone-resorptive effects of gallium nitrate are achieved with less than 25-50% of the anticancer dose. Thus the method should retain safety and efficacy for prolonged periods of time.
Experimental Results: Studies of calcium homeostasis require an assessment of multiple factors including dietary intake, excretion of calcium into urine and stool, and analysis of calcium mobilization from body stores (chiefly bone). Four patients who participated in a careful study of the effects of gallium nitrate upon calcium metabolism were thus assessed. Patients were hospitalized and received a diet of defined calcium, sodium, and fluid intake. Measurements of calcium excretion into urine and stool (along with multiple other laboratory tests) were made daily during a 6-day baseline period and during a subsequent treatment period using gallium nitrate. The drug was administered as a continuous infusion at a dose of 300 mg/sq m/day for durations ranging from 4-7 days.

kidney = test: clinical toxicity of gallium (kidney damage, long-term infusion); format: in vivo, patients; details: printed 22+ months
From the text: as §1

[1] = 4 patients, continuous infusion 300 mg/sq m/day, 4-7 days

## O=[N+]([O-])[O-].O=[N+]([O-])[O-].O=[N+]([O-])[O-].[Ga+3] [gallium nitrate]
Fetal rat bones; 1 mcg/ml
  45-Ca++ release after stimulation by PTH or lymphokine (dose dependence): no significant change
Fetal rat bones; 5 and 10 mcg/ml, P less than 0.025
  45-Ca++ release after stimulation by PTH or lymphokine (dose dependence): significant and dose-related reductions
Fetal rat bones; 10 mcg/ml simultaneously with (time 0) or 18 hrs preceding PTH or lymphokine
  45-Ca++ release (time dependence): the reduction was not statistically significant
Fetal rat bones; 48 h preincubation, 1, 5 and 10 mcg/ml
  45-Ca++ release: dose dependent decrease
Fetal rat bones; PTH-stimulated, gallium 1 mcg/ml, 48 h preincubation, 0 gallium: 1.21 ± 0.15
  45-Ca++ release expt'l / 45-Ca++ release control (E/C): 1.24
Fetal rat bones; PTH-stimulated, gallium 5 mcg/ml, 48 h preincubation, 0 gallium: 1.21 ± 0.15
  45-Ca++ release expt'l / 45-Ca++ release control (E/C): 1.08
Fetal rat bones; PTH-stimulated, gallium 10 mcg/ml, 48 h preincubation, 0 gallium: 1.21 ± 0.15
  45-Ca++ release expt'l / 45-Ca++ release control (E/C): 0.99
Fetal rat bones; lymphokine-stimulated, gallium 1 mcg/ml, 48 h preincubation, 0 gallium: 1.59 ± .1
  45-Ca++ release expt'l / 45-Ca++ release control (E/C): 1.54 ± .16
Fetal rat bones; lymphokine-stimulated, gallium 5 mcg/ml, 48 h preincubation, 0 gallium: 1.59 ± .1
  45-Ca++ release expt'l / 45-Ca++ release control (E/C): 1.21 ± .04
Fetal rat bones; lymphokine-stimulated, gallium 10 mcg/ml, 48 h preincubation, 0 gallium: 1.59 ± .1
  45-Ca++ release expt'l / 45-Ca++ release control (E/C): 1.23 ± .04
Fetal rat bones; pre-incubation 48 hours preceding lymphokine, 10 mcg/ml
  lymphokine-induced 45-Ca++ release (time dependence): highly significant reduction
Fetal rat bones; summary, inhibition time- and dose-dependent
  calcium release induced by PTH and by factor similar to OAF: inhibits calcium release induced by both of these substances
Fetal rat bones
  45-Ca++ release, gallium alone: No increase in bone calcium release
Fetal rat bones; listed as gallium
  45-Ca++ release, gallium alone: did not have any effect on 45-Ca++ release
Calcium metabolism; [1]
  calcium excretion relative to baseline: no significant increase in calcium excretion
  total serum calcium concentration: reduced by the gallium infusion
Calcium metabolism; of the anticancer dose
  dose for anti bone-resorptive effects as share of the anticancer dose: 25-50%
Calcium metabolism; patients receiving gallium nitrate
  urinary calcium excretion: decreased urinary calcium excretion
Calcium metabolism; patients while receiving the drug
  calcium balance: remained in positive calcium balance
kidney
  duration of intermittent high-dose infusions without serious toxicity: ≥ 22 months
